In the supplement of paper PMC12463676, “Small-molecule dissolution of stress granules by redox modulation benefits ALS models” (Nature Chemical Biology, 2025):

Key:
[1] = compound: NC(=O)CCCCC1CCSS1 [lipoamide]; assay: thermal stability z-score vs DMSO; higher = more thermally stabilized by treatment; conditions: HeLa, lipoamide concentration 100 µM
Method: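 Cellular thermal proteome profiling in HeLa cells. Cells were treated with 100 µM lipoamide for 1 h, with or without 1 mM arsenate for a further 1 h, then heated to ten temperatures (37-66.3 °C), and soluble protein was quantified by TMT mass spectrometry relative to 0.1% DMSO controls. The thermal stability score (sum of log2 fold changes minus the abundance score) was transformed to a z-score; mean of n = 3 experiments.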

[2] = compound: O=[As]([O-])(O)O.[K+] [potassium arsenate]; assay: as above; conditions: HeLa; arsenate concentration 1 mM
Method: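 Cellular thermal proteome profiling in HeLa cells treated with 1 mM arsenate for 1 h (DMSO pretreatment), heated to ten temperatures (37-66.3 °C). Soluble protein was quantified by TMT mass spectrometry relative to DMSO controls; the thermal stability score was transformed to a z-score; mean of n = 3 experiments.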

[3] = arsenate co-treatment: 1 mM arsenate 1 h
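Also: each temperature applied for 3 min, abundance score taken as mean log2 fold change at the two lowest temperatures, z-score obtained by mean subtraction and division by SD.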

Chain of UniProt O95292 (O95292 whole entry): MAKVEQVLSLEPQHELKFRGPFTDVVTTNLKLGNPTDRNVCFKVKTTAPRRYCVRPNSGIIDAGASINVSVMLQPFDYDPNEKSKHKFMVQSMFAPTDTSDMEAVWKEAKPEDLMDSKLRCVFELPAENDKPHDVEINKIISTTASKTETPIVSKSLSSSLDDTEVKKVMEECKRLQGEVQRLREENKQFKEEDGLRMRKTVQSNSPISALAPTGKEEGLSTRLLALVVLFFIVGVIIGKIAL
Chain of UniProt Q53GS9 (Q53GS9 whole entry): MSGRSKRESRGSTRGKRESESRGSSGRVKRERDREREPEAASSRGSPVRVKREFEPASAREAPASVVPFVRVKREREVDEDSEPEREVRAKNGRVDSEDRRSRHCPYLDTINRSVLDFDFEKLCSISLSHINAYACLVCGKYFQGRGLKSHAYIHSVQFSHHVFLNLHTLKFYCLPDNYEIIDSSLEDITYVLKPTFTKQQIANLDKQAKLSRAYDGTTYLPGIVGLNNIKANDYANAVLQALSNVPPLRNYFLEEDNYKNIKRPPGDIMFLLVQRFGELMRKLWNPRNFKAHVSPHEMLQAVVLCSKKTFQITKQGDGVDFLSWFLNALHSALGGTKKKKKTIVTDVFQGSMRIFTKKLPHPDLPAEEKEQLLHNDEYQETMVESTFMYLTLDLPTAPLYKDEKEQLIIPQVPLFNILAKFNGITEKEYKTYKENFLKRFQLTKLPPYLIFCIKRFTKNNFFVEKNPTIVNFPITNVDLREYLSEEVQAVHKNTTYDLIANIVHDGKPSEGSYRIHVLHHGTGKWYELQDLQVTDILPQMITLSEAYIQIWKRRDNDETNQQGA
Chain of UniProt Q70CQ2 (Q70CQ2 whole entry): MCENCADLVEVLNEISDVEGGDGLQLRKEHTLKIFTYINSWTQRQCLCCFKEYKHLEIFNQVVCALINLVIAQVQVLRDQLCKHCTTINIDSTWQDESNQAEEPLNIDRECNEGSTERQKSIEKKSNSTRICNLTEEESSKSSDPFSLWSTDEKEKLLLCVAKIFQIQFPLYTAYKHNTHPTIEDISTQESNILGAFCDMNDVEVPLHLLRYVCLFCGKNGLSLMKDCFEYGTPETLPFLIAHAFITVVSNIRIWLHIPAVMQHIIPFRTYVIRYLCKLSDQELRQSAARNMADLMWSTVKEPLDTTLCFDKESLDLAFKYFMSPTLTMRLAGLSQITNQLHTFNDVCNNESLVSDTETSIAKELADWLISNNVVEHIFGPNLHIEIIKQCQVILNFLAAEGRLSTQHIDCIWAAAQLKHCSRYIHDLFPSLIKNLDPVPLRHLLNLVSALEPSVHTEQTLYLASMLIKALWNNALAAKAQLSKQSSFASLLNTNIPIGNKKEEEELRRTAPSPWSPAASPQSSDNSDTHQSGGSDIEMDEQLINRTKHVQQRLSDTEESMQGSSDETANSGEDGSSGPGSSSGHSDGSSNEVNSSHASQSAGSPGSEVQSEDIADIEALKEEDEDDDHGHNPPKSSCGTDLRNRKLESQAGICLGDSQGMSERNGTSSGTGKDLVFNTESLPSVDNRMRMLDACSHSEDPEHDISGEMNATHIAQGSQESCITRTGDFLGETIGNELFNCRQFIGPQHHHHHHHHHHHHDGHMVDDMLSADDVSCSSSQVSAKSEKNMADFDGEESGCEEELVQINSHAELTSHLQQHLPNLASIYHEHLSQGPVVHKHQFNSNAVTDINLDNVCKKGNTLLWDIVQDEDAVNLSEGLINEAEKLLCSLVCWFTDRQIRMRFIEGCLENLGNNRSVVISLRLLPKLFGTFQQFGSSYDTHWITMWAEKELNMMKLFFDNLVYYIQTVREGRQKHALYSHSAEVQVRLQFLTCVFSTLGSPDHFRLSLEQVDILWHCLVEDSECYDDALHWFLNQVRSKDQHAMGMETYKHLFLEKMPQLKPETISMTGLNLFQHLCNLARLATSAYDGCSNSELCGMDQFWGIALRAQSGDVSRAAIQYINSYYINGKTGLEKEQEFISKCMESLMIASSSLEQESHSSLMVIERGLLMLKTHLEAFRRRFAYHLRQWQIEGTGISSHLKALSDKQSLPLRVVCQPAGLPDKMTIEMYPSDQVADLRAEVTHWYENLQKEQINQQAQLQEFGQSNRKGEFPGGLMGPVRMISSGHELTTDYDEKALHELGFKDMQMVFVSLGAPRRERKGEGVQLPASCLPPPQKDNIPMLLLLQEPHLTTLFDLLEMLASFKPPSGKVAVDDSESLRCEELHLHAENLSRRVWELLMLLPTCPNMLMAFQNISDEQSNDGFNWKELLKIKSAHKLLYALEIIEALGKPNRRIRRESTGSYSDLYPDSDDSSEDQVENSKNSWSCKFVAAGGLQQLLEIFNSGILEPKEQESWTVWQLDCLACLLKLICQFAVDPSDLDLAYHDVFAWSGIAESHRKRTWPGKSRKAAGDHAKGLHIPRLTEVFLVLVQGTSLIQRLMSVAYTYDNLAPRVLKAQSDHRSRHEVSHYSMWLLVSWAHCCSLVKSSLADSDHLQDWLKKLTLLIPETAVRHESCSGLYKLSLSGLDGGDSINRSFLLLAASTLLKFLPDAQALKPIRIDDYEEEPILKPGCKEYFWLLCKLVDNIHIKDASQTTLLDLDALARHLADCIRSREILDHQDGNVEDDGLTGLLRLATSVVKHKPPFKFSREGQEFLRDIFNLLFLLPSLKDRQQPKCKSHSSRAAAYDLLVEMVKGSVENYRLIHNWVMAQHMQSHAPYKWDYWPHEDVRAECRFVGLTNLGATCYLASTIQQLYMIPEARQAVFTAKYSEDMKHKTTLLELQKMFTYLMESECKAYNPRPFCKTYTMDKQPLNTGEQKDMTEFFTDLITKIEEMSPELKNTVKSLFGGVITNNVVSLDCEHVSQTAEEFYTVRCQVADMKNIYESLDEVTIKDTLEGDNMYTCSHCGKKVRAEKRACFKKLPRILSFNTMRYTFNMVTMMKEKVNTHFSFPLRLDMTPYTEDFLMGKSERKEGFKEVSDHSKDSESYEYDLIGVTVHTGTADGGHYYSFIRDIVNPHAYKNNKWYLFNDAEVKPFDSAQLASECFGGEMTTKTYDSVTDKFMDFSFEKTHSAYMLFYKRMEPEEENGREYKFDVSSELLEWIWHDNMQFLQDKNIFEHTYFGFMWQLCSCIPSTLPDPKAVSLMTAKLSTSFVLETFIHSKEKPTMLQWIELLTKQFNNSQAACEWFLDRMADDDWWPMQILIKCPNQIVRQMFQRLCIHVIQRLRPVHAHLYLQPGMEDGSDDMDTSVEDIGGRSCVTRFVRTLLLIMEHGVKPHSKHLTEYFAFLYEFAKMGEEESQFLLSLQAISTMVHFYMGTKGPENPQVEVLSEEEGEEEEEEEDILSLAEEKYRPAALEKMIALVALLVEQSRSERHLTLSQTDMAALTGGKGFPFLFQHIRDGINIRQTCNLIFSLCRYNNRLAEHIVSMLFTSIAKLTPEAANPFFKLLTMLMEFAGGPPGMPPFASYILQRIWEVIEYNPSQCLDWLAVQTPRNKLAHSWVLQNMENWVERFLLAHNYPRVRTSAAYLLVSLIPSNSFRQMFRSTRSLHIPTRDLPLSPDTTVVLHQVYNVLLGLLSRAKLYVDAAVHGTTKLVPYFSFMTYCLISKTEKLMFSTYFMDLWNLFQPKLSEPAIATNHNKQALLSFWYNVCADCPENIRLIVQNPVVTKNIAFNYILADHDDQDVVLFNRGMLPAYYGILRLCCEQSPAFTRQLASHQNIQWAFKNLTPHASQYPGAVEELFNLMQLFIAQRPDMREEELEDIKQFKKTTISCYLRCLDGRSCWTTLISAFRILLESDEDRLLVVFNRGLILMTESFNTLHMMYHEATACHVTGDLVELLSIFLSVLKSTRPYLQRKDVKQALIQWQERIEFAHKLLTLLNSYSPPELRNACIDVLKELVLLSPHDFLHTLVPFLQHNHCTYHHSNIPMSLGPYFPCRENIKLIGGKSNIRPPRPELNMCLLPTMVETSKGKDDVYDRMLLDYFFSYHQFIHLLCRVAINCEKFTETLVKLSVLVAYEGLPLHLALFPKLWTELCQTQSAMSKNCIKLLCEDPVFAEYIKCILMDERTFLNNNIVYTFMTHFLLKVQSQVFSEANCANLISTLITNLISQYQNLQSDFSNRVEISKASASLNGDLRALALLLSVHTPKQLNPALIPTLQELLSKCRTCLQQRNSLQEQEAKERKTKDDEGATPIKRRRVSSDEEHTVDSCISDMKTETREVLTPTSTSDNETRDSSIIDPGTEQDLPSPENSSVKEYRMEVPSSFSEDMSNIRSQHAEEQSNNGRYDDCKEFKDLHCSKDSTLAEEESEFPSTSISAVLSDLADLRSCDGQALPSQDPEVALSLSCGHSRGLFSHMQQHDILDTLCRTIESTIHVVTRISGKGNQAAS
Chain of UniProt Q99536 (Q99536 whole entry): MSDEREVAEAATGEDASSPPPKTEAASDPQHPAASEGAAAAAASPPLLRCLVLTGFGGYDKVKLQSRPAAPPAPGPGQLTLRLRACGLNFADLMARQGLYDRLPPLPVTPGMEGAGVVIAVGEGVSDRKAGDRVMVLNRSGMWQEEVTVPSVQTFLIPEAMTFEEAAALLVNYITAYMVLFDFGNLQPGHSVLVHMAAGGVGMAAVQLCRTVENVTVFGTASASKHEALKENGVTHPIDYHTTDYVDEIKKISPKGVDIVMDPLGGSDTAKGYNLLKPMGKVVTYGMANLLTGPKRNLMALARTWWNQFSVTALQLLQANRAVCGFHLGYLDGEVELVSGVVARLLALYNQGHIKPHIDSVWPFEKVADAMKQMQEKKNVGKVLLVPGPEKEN
Chain of UniProt P21796 (P21796 whole entry): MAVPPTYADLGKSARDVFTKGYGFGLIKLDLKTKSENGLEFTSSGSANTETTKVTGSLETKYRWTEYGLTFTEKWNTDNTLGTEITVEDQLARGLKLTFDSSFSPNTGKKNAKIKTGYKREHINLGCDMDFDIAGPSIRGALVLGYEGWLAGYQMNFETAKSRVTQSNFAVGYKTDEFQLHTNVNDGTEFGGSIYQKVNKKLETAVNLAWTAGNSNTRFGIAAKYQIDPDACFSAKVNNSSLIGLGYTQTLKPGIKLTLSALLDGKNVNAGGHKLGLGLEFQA

Target	thermal stability z-score [1, 3]	thermal stability z-score ([1]; arsenate co-treatment: none)	thermal stability z-score [2]
USP19 (UniProt O94966)	0.774	-0.193	-0.0515
USP22 (UniProt Q9UPT9)	-0.374	0.131	0.237
USP24 (UniProt Q9UPU5)	-0.197	-0.413	-0.117
USP25 (UniProt Q9UHP3)	-0.18	-0.113	0.667
USP28 (UniProt Q96RU2)	-0.088	-0.175	-0.158
USP32 (UniProt Q8NFA0)	-0.102	-0.19	-0.0527
USP33 (UniProt Q8TEY7)	-0.155	-0.011	1.21
USP34 (UniProt Q70CQ2)	0.544	0.668	-0.384
USP36 (UniProt Q9P275)	0.216	-0.0229	-0.265
USP39 (UniProt Q53GS9)	-0.384	-0.174	-0.489
USP47 (UniProt Q96K76)	-0.439	-0.436	0.244
USP48 (UniProt Q86UV5)	-0.179	-0.137	-0.669
UTP3 (UniProt Q9NQZ2)	0.145	0.194	0.203
UTP4 (UniProt Q969X6)	0.167	0.0645	0.0306
UTP6 (UniProt Q9NYH9)	0.13	-0.00953	0.272
UTP14A (UniProt Q9BVJ6)	1.62	0.823	2.11
UTP15 (UniProt Q8TED0)	0.625	0.147	0.528
UTP18 (UniProt Q9Y5J1)	0.058	-0.244	0.516
UTP20 (UniProt O75691)	-0.113	-0.168	-0.134
UTRN (UniProt P46939)	0.452	-0.0132	-0.495
UVRAG (UniProt Q9P2Y5)	-0.0868	-0.247	-0.352
UXS1 (UniProt Q8NBZ7)	0.238	0.551	0.198
UXT (UniProt Q9UBK9)	0.497	0.378	0.352
UniProt E7ENQ6	-0.462	-0.272	0.151
UniProt E7EQ34|GOSR2	-0.785	-0.401	-0.878
UniProt E9PSI1	-0.0572	-0.622	-0.346
UniProt F5GYJ5	0.464	0.437	0.166
UniProt F5H5P2|BCKDHA	-0.168	-0.738	0.969

Target	thermal stability z-score [1, 3]	thermal stability z-score ([1]; arsenate co-treatment: none)	thermal stability z-score [2]
UniProt F8W031	-3.73	-2.58	0.325
UniProt G3V599	-0.297	-0.663	0.593
UniProt H0YIV9|GATC	-0.219	-0.277	-0.0937
VAC14 (UniProt Q08AM6)	-0.483	-0.0923	-0.61
VAMP4 (UniProt O75379)	1.45	1.92	0.236
VAMP7 (UniProt P51809)	-0.512	-0.444	-0.234
VAMP8 (UniProt Q9BV40)	1.3	1.28	0.587
VANGL1 (UniProt Q8TAA9)	0.696	0.817	-0.242
VAPA (UniProt Q9P0L0)	0.25	-0.0574	-1.14
VAPB (UniProt O95292)	-0.055	0.415	-0.178
VARS2 (UniProt Q5ST30)	-0.824	-0.273	0.279
VARS (UniProt P26640)	0.0159	-0.0112	0.373
VASP (UniProt P50552)	0.564	0.923	-0.33
VAT1 (UniProt Q99536)	0.819	0.762	1.37
VAV2 (UniProt P52735)	0.0635	0.172	0.835
VBP1 (UniProt P61758)	-0.615	-0.366	-0.72
VCL (UniProt P18206)	-0.353	-0.286	-2.02
VCP (UniProt P55072)	0.257	0.118	-0.172
VCPIP1 (UniProt Q96JH7)	-0.216	-0.156	-0.233
VDAC1 (UniProt P21796)	0.311	0.385	0.905
VDAC2 (UniProt P45880)	0.262	0.307	1.58
VDAC3 (UniProt Q9Y277)	0.0571	0.18	0.848
VEZT (UniProt Q9HBM0)	-0.758	-0.707	-0.349
VGLL4 (UniProt Q14135)	-0.0828	0.229	-1.46
VIM (UniProt P08670)	1.82	1.15	0.432
VIMP (UniProt Q9BQE4)	0.458	0.457	-0.948
VIPAS39 (UniProt Q9H9C1)	-0.0571	0.338	0.358
